Values quoted from earlier work, collected in patent US20130158016A1, “ANESTHETIC ASSOCIATION, ANESTHETIC COMPOSITION, AND […] VETERINARY USE” (Ouro Fino Participacoes e Empreendimentsos S/A, priority 2010, published 2013).

Test system: female dogs
Conditions: 2 mg/kg intravenously (slow), prophylactic

In the case of `COc1cccc(C2(O)CCCCC2CN(C)C)c1` (stereo not drawn) [tramadol], the analgesia after ovariosalpingohisterectomy is listed as “analgesia similar to that produced by morphine”, the “effect on expired concentration of isoflurane” value is listed as “reducing the expired concentration of isoflurane” and the “neuroendocrine response to pain (catecholamine and cortisol)” value is listed as “reducing the peaks of catecholamine and cortisol”.
